Measured values from patent publication US20140378460A1, “COMPOSITIONS AND METHODS FOR TREATING NEURODEGENERATIVE DISEASE” (COGNITION THERAPEUTICS, INC., priority 2011, published 2014).
“Also recorded” adds a separate entry of the source.

Columns and labels:
[1] = system: sigma 2 (agonist radioligand); experiment: Receptor panel, inhibition of binding; settings: Compound II 10 uM
[2] = molecular target: mu (MOP) (h) (agonist radioligand) (Homo sapiens, UniProt P35372); experiment: Receptor panel, inhibition of binding
Chain of mu (MOP) (h) (agonist radioligand) (P35372 whole entry): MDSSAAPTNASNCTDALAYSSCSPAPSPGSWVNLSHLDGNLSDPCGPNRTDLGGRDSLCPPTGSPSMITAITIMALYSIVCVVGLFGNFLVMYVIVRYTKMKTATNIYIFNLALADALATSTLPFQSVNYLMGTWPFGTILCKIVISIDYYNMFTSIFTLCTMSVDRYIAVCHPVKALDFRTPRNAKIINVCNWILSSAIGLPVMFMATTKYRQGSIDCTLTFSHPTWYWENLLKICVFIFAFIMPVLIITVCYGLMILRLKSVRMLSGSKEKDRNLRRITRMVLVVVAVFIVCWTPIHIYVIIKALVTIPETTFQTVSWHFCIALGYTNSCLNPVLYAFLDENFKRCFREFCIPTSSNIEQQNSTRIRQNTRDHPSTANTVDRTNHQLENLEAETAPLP

[3] = in vivo; settings: male, C57BL/6, mouse, sc, 10 mg/kg
Source text: A plasma calibration curve was generated.
Subcutaneous compound administration was accomplished by […]. Per oral administration was accomplished by gastric gavage. Intravenous administration was accomplished via jugular catheter.
A brain calibration curve was generated.

[4] = system: Abeta oligomer binding to primary neurons; experiment: Abeta 1-42 oligomer binding assay; format: cell-based, rat
Procedure: In this assay, Abeta oligomers were brought in contact with mature primary neurons in culture and their binding was determined by immunohistochemistry (anti-Abeta antibody) and quantified by image processing. The amount of Abeta in neuronal dendrites is assessed by counting the number of labeled puncta on the neuritis. […] This labeling is associated with synapses, co-localizing with the post-synaptic scaffold protein PSD-95 (Lacor et al., '04). […] The number of synapses can also be quantified in this assay by immunofluorochemistry. Similar procedures for binding assays can be found in the literature. […] Review.
Primary hippocampal neuronal culture was established as in the membrane trafficking assay above. […] Pretreatment with compounds to be tested lasted for 1 hr and addition of Abeta oligomers or no oligomer (vehicle alone) in a final concentration of 70 ul was followed by incubation for an additional 23 hrs.
The plates were then washed 3× with PBS for 5 min each. The plates were blocked at RT for 1 hr in 5% goat serum and 0.5% Triton X-100 in PBS. […] Primary antibodies were incubated overnight at 4° C. The plates were then washed 3× with PBS for 5 min each. […] Secondary antibodies were incubated at RT for 1 hr. The plates were washed once with PBS. DAPI (4′,6-diamidino-2-phenylindole, Invitrogen) was then applied at 0.03 ug/ul and incubated at RT for 5 min, then washed with PBS.

[5] = system: Abeta oligomer-induced memory deficits in wt C57BL/6 mice; experiment: Contextual fear conditioning, intrahippocampal Abeta oligomers; format: in vivo, mouse; settings: before oligomers
Procedure: Several pharmaceutical companies use this same model in their discovery efforts. Contextual fear conditioning is an accepted model of associative memory formation which correlates to human cognitive function and specifically the creation of new memories (Delgado '06). Abeta oligomers are injected into the hippocampus of wild-type animals immediately before conditioning training and memory is assessed via freezing behavior after 24 hours. See, for example, FIGS. 4 and 8. Details are provided in Example 9. […] This model system was chosen because intrahippocampal administration of oligomers allows rapid comparative assessment of compound activity and off-target toxicity. The results are shown graphically in FIG. 4.
Compound II was tested in an animal model of a memory-dependent behavioral task known as fear conditioning. The study protocol was designed based on published protocols (See e.g. Puzzo D, Privitera L, Leznik E, Fà M, Staniszewski A, Palmeri A, Arancio O. Picomolar amyloid-beta positively modulates synaptic plasticity and memory in hippocampus. J. Neurosci. 2008 Dec. 31; 28(53):14537-45.). The formation of contextual memories is dependent upon the integrity of medial temporal lobe structures such as the hippocampus. […]

[6] = system: hAPP transgenic mice (Swedish and London mutations); experiment: Morris water maze in hAPP transgenic mice; format: in vivo, mouse; settings: II 0.5 mg/kg/day; subcutaneous minipump
Procedure: In this study, rather than preventing deficits from occurring, deficits that were already established were treated. These studies were performed pursuant to a service contract by scientists who were blind to the experimental conditions. […]
The swim speed was analyzed as part of the Morris measurements to determine if there were any motor or motivational deficits. Our vehicle is a 5% DMSO/5% Solutol, 90% saline mixture. […] The average of three daily trials on each of four consecutive days were determined.
Escape latency measurements from the Morris water test were taken.
During the final four days of treatment, mice were tested to find the hidden platform in three trials/day. A computerized tracking system automatically quantified escape latency, or swim length.

[7] = system: caspase-3 in SKOV-3 human ovarian cancer cells; experiment: Caspase-3 activity in tumor cells; format: cell-based
[8] = system: caspase-3 in neuronal cultures; experiment: Caspase-3 activity in neurons; format: cell-based
[9] = system: neurons and glia in culture; experiment: In vitro neuronal and glial toxicity; format: cell-based; settings: acute or chronic dosing, up to 50 μM, three days
Source text: The sigma-2 receptor antagonists eliminated or reduced Abeta oligomer-induced changes in membrane trafficking.

[10] = system: HepG2 tumor cell line; experiment: HepG2 toxicity; format: cell-based; settings: 10 μM
[11] = molecular target: hERG (Homo sapiens, UniProt Q12809); experiment: hERG inhibition; settings: 100 nM
Chain of hERG (Q12809 whole entry): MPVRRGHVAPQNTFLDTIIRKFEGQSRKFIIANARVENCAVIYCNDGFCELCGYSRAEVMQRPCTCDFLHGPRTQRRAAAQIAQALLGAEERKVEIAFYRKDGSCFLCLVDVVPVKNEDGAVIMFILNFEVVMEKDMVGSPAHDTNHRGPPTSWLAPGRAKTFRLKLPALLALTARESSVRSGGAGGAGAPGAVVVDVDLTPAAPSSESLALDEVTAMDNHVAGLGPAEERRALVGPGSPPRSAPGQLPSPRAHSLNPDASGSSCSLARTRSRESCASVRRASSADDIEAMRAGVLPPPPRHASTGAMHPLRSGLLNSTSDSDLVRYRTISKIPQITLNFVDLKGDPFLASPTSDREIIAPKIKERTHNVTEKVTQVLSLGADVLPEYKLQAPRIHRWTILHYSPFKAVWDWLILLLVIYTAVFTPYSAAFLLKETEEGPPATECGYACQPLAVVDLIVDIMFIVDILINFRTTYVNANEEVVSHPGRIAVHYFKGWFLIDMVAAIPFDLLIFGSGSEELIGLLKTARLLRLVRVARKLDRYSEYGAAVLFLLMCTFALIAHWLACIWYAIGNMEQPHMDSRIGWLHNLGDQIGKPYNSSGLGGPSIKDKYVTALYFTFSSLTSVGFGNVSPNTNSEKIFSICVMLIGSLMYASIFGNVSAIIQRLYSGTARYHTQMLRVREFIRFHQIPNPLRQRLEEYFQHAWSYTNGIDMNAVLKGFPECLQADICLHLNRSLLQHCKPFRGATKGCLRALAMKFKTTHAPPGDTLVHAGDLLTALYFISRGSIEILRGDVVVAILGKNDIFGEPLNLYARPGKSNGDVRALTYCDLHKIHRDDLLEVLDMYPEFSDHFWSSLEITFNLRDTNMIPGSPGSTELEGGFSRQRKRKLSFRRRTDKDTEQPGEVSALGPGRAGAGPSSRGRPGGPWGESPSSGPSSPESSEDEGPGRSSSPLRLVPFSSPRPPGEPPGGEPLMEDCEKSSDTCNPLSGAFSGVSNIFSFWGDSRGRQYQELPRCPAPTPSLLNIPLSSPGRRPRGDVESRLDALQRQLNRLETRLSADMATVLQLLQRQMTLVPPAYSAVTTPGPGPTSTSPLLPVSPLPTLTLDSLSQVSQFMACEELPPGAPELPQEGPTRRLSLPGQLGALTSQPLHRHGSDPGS

[12] = molecular target: PGP (Homo sapiens, UniProt P08183); experiment: PGP activity; format: in vitro ADME
Chain of PGP (P08183 whole entry): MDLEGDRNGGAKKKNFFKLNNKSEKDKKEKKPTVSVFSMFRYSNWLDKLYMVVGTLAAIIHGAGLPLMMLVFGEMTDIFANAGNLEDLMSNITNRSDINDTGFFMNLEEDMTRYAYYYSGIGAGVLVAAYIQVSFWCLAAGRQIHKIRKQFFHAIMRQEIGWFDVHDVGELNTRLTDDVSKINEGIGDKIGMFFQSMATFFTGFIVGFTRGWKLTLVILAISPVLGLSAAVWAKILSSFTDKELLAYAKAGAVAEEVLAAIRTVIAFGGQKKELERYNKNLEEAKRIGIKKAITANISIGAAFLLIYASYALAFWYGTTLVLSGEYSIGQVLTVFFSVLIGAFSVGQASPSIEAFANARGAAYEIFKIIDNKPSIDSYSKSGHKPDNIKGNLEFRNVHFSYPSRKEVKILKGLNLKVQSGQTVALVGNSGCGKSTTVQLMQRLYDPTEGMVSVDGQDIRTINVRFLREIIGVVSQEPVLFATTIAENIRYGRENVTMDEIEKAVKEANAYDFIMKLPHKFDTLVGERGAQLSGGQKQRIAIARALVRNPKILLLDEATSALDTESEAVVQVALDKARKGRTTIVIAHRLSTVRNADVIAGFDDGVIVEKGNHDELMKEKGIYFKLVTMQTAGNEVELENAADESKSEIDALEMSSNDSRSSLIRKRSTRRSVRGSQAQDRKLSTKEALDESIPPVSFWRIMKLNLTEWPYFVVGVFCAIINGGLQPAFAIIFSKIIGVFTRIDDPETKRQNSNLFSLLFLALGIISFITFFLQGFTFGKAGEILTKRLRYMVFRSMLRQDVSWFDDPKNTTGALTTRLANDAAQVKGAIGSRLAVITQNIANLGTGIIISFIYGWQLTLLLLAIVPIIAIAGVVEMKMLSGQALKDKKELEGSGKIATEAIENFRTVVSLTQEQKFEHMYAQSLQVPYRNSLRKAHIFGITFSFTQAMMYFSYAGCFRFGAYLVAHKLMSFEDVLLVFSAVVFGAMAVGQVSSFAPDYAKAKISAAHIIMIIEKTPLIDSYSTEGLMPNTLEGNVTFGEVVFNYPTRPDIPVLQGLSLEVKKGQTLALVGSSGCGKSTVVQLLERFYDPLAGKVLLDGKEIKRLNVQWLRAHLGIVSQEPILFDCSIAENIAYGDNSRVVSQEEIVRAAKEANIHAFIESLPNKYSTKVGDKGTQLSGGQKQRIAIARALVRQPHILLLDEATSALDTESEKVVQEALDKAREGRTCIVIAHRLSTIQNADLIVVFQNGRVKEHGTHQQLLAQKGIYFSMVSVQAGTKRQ

[13] = system: sigma-2 receptor; settings: 1 μM each; 18.4 nM [3H]-RHM-1
[14] = Genotoxicity (AMES, micronucleus, bacterial cytotox); settings: 10 μM
[15] = molecular target: T1, sigma-2 receptor (Rattus norvegicus, UniProt Q5U3Y7); experiment: Sigma-2 competitive radioligand binding, [3H]DTG with 300 nM (+)pentazocine, rat cerebral cortex membranes
T1 sequence (Q5U3Y7 1-176): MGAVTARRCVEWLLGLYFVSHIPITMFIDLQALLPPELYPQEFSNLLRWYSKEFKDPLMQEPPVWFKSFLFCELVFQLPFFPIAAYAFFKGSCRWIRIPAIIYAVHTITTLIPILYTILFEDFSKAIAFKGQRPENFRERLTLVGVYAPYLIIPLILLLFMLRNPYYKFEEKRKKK
Procedure: Reactions were terminated by rapid filtration through Whatman GF/C filters using a Brandel 12R cell harvester followed by two washes with ice-cold buffer. Radioactivity on the dried filter discs was measured using a liquid scintillation analyzer (Tri-Carb 2900TR; PerkinElmer Life and Analytical Sciences). The displacement curves were plotted and the Ki values of the test ligands for the receptor subtypes were determined using GraphPad Prism (GraphPad Software Inc., San Diego, Calif.). The percentage specific binding was determined by dividing the difference between total bound (disintegrations per minute) and nonspecific bound (disintegrations per minute) by the total bound (disintegrations per minute).

COc1cc(CCC(C)NCc2ccc(C(F)(F)F)cc2)ccc1O (stereo not drawn) [Compound II]
% Inhibition of Control [1]: 89%
Other Targets: Mu opioid ([2]; Table 11E): opioid (4 uM),
inhibition at 10 µM ([2]; read-out: % Inhibition of Control): 60%
AUC [3]: 385 ng·h/mL
Cmax [3]: 279 ng/mL
Tmax [3]: 30 min
Decrease of Abeta binding intensity (Abeta puncta) ([4]; FIG. 3D): 18%
Partial block of binding of Abeta oligomer ligand to neurons ([4]; imaging processing algorithm): about 25%
Effect on Abeta oligomer-induced memory deficits [5]: eliminated memory deficits; also recorded: completely blocked oligomer-mediated memory deficits at the 2 pmol dose
Morris water maze performance versus vehicle-treated transgenic animals [6]: significant improvement in transgenic performance
Block of SV-119-induced caspase-3 activation in tumor cells [7]: do not block caspase-3 activation
Caspase-3 activity induced in tumor cells [7]: did not induce caspase-3 activity
Block of SV-119-induced caspase-3 activation in neurons [8]: blocked caspase-3 activation
Caspase-3 activity induced in neurons [8]: did not induce caspase-3 activity
Neuronal or glial toxicity [9]: did not induce neuronal or glial toxicity
HepG2 toxicity [10]: 66%
hERG inhibition [11]: 24%
IC50 [12]: > 30000 nM
Displacement of [3H]-RHM-1 [13]: partially displace
Genotoxicity [14]: no genotoxicity
Ki ([15]; Ki at sigma-2 receptors, displacement of [3H]DTG/300 nM (+)-pentazocine, rat neocortex homogenate): 9 nM
Ki ([15]; S2 binding Ki (nM), Table 11B): 9 nM
Ki ([15]; Sigma 2 Binding Ki (nM), Table 2, own compounds): 9 nM
Ki ([15]; Sigma Affinity (S2) nM, Table 11E, own compounds): 9 nM
